Entries after “also recorded” stand apart in the source; their conditions may differ.
Columns and labels:
[1] = test system: Normal Cell Line CRL 1790
Experimental: (§1) Cell culture: Three cell lines derived from colon, CRL 1790, a normal cell line, HT 29, a colorectal cancer cell line and CRL 2158 a multidrug resistant colorectal cancer cell line (ATCC) were used to evaluate the cytotoxicity of nanocomplexes. Cells were cultured in media specifically recommended for each cell line. For HT 29, the medium used was DMEM (Dulbecco's modified Eagle's medium, Sigma), for CRL 2158, the medium used was RPMI, and for CRL 1790, the medium used was EMEM (Eagle's minimum essential medium; Cedarlane Labs, Burlington, ON, Canada). All the media were supplemented with FBS, Penicillin/streptomycin, and L-glutamine. At confluency (˜80%), cells were washed with 1×PBS twice. Cells were incubated with trypsin-EDTA for 5 minutes and then diluted in respective media supplemented with 10% FBS before staining with trypan blue (50 ul of cells and 450 ul of trypan blue) and counting viable cells to evaluate cytotoxicity. The cytotoxicity was determined by trypan blue exclusion by living cells and blue staining of dead cells. The number of dead cells in a unit area was counted and expressed as a percentage of total cells in the area. […]

[2] = test system: Colorectal MDR cell line CRL 2158
Experimental: as §1

HT 29 cells = test: Calcein uptake by confocal microscopy; type: cell-based, human
Experimental: (§2) Calcein uptake into HT 29, CRL 1790 cells: Uptake of calcein-loaded nanoparticles into mammalian cells. Calcein by itself is impermeable through membrane, and may be taken up at a low level by endocytosis. Ethanol-bleached cherry was homogenized in water, also containing 1 mg/g fresh weight equivalent of calcein, and the supernatant dialyzed against water. Calcein complexed to nanofilaments is retained within the dialysis bag, and used for uptake measurements by confocal microscopy.
(§3) Studies were also performed to investigate use of nanofibres as delivery vehicles for a cargo of interest, where the cargo was non-covalently complexed with the nanofibres. In this study, nanofibres were used for cellular delivery of calcein. […]
(§4) Uptake of complexed molecules by nanofibres: Nanofibres are extremely long (micrometers in length, ˜5 nm in diameter; see FIG. 37, for example), and their ability to cross the plasma membrane was investigated. […] HT-29 and CRL-1790 cells were incubated in the presence of calcein alone, and calcein-complexed nanofibres (of equal fluorescence intensity). Uptake of calcein and calcein complexed with nanofibres were monitored by confocal microscopy. […] Similar experiments were also conducted with nanoparticles, however, because of quenching of fluorescence by polyphenols, successful acquisition of images was not achieved.

CRL 1790 cells = test: Calcein uptake by confocal microscopy; type: cell-based, human
Experimental: as §2, §3, §4

[3] = DPPH radical scavenging capacity of food powder; type: biochemical; conditions: positive control at same concentrations as polyphenols

CC(=O)O[C@H]1C(=O)[C@@]2(C)[C@H]([C@H](OC(=O)c3ccccc3)[C@]3(O)C[C@H](OC(=O)[C@H](O)[C@@H](NC(=O)c4ccccc4)c4ccccc4)C(C)=C1C3(C)C)[C@]1(OC(C)=O)CO[C@@H]1C[C@@H]2O [Paclitaxel, paclitaxel]
cytotoxicity (in words) [1]: low level of cytotoxicity
cytotoxicity (in words) [2]: low level of cytotoxicity

O=C(O)CN(CC(=O)O)Cc1cc2c(cc1O)Oc1cc(O)c(CN(CC(=O)O)CC(=O)O)cc1C21OC(=O)c2ccccc21 [calcein]
uptake of calcein into cells (HT 29 cells): comparatively very low; also recorded: Far reduced uptake
uptake of calcein into cells (CRL 1790 cells): comparatively very low

Cc1c(C)c2c(c(C)c1O)CCC(C)(C(=O)O)O2 (centres unmarked) [Trolox]
TEAC value [3]: 1
